Measured values as given in paper PMC5372569, “A New Oleanolic Acid Derivative against CCl4-Induced Hepatic Fibrosis in Rats” (International Journal of Molecular Sciences, 2017).
“And” between values parts separate entries of the source, which are not always exact repeats. Equal entries are not always repeated.

Tests used:
TGF-β1 = assay: Immunohistochemical staining of TGF-β1 in liver tissue, CCl4-induced liver fibrosis; format: in vivo; conditions: nine weeks, CCl4 rats
Experimental: (§1) After a two-week acclimation period, 52 rats were randomly divided into five groups (each group approximately consisted of ten rats). (1) Normal group: rats were fed with regular diet and distilled water and were injected intraperitoneally with olive oil (2 mL/kg body weight per day, i.p. twice per week) for nine weeks; (2) Model group: rats were feeding with the same quantity as the normal group and were injected with 40% CCl4/olive oil (2 mL/kg body weight, twice per week) for nine weeks to induce liver fibrosis; (3) Low-dose group: rats were fed with the same quantity as the normal group and were administered intraperitoneal injections with 40% CCl4/olive oil (2 mL/kg body weight, twice per week) and with a low dose (14 mg/kg body weight, once per day) Oxy-Di-OA treatment for nine weeks; (4) High-dose group: rats were fed with the same quantity as the normal group and were treated with 40% CCl4/olive oil (2 mL/kg body weight twice per week) and with a high dose (28 mg/kg body weight, once per day) Oxy-Di-OA treatment for nine weeks; (5) Positive control group: rats were fed with the same quantity as the normal group and were administered 40% CCl4/olive oil (2 mL/kg body weight, twice per week) and with bifendate (10.5 mg/kg body weight, once per day) for nine weeks.
Immunostaining was conducted as paraffin-embedded liver tissue sections of 5 µm thickness to determine the expression and distribution of TGF-β1 in the liver tissue of rats. Tissues were treated with 3% H2O2 in distilled water for 10 min to block endogenous peroxidase activity followed by another wash, and then blocked with 5% BSA blocking buffer for 20 min. Then, after endogenous peroxidase blockage, the sections were incubated with TGF-β1 primary antibody (1:50 dilution) at 4 °C overnight. The next day, they were washed three times with PBS (phosphate-buffered saline) and then incubated with HRP-labelled goat-anti-rabbit secondary antibodies at 37 °C for 30 min. […] The expression of TGF-β1 in liver tissues was analyzed under a light microscope (Olympus, Tokyo, Japan).

[1] = Acute toxicity assay via gavage; conditions: male, Kunming, mouse, in vivo; mice, gavage (oral administration), doses up to 2000 mg/kg
Experimental: (§2) According to previous studies, Oxy-Di-OA was further investigated for its approximate LD50 and 95% confidence interval (CIs) value in mice. Male Kunming mice, weighing 20 ± 2 g were randomly divided into eleven groups of six individuals matched by weight and size. The mice had fasted for 12 h, but water was allowed ad libitum before the acute toxicity experiments.
One group of mice was orally administered bean oil as a normal control. Then the other four groups of mice were given gavage of Oxy-Di-OA in doses of 200, 500, 1000, and 2000 mg/kg, respectively. The mice were observed continuously for 1 h after such treatment and then intermittently for 4 h, and thereafter over a period of 24 h. The mice were further observed for up to seven days following treatment for any signs of toxicity, death, and the latency of death. Abnormal symptoms were recorded immediately.
The acute toxicity test via gavage was evaluated by LD50.

[2] = system: CCl4-induced liver fibrosis in rats; assay: Liver and spleen indices in CCl4-induced liver fibrosis; format: in vivo; conditions: mean ± SD
Experimental: as §1
(§3) At 48 h after the final injection of CCl4, all rats were anaesthetized with chloral hydrate, and the blood samples were collected from the aorta abdominalis. The serum samples were obtained by centrifugation at 3000 rpm for 15 min to obtain the supernatant and were kept frozen at −80 °C until biochemical analysis. Livers and spleens were immediately removed, rinsed in ice-cold saline, and weighed. The data were used for calculating liver and spleen indices. Then a portion of each liver was fixed in 4% buffered formaldehyde, embedded in paraffin blocks, and stained with hematoxylin-eosin (H&E) for histological and biochemical analyses. The rest of the tissues were stored at −80 °C until required.
We used the percentage of the body weight to represent relative weights of the liver and spleen, respectively. The indices of liver and spleen were expressed as Wl/Wm and Ws/Wm, respectively. The Wl and Ws represented the average liver and spleen weight of each group, respectively, and Wm was the average rat body weight of each group.

[3] = Pharmacokinetic study after single-dose oral administration (HPLC-UV); format: in vivo, SD rats; conditions: rats
Experimental: The LC system is made up of an Agilent 1100 HPLC system (Agilent Corporation, USA) coupled with a reverse-phase Agilent TC-C18 analytical column (4.6 mm × 250 mm, 5 µm particle size). The column temperature set at 25 °C. The column used during the pharmacokinetic assay was eluted at a flow rate of 1 mL/min, and the solvent consisted of 98% methanol and 2% aqueous solution. The detection wavelength was 278 nm and the injection volume was 10 μL. Healthy SD rats had no access to food until 12 h after dose administration, while water was free to access throughout the experiments. To determine the drug concentrations and to calculate the pharmacokinetic parameters, blood was obtained from the ophthalmic vein and collected with heparinized microcentrifuge tubes. The plasma was separated by centrifuging the blood samples at 4000 rpm for 15 min. Plasma stored in a freezer at −20 °C was thawed at 4 °C before treatment. After that, 15 μL of IS (50.4 μg/mL) working solution was added to such a plasma sample (200 μL), followed by vortex-mixing for 1 min to obtain the mixture. Then we added 600 μL acetonitrile to the mixture and vortexed for 5 min. After that, the mixture was centrifuged at 12,000 rpm for 5 min at 4 °C. […] The residue was then reconstituted in 100 μL methanol, and stirred and vortexed for 1 min. The solution was centrifuged at 12,000 rpm for 5 min to obtain the supernatant. Finally, 10 μL of supernatant was injected into the HPLC system for further analysis. Oxy-Di-OA was dissolved in normal saline before using. Before administration of drug, six SD rats had no access to food overnight but water was allowed free access. A single dose (500 mg/kg) of Oxy-Di-OA solution was administered orally to rats. After that, the blood samples were collected with heparinized microcentrifuge tubes at 1, 2, 6, 8, 10, 12, 14, 16 and 20 h. Plasma was separated by centrifugation (4000 rpm, 10 min, and 15 °C) and kept at −20 °C until necessary.

mice = assay: Acute toxicity assay via intraperitoneal injection; format: in vivo, Kunming mice
Experimental: as §2
(§4) The maximum suspended dose (900 mg/kg) of Oxy-Di-OA was prepared in bean oil solution. One group of mice was injected intraperitoneally with bean oil as a normal control. Then the other five groups of mice were given intraperitoneal injections of Oxy-Di-OA in doses of 178, 422, 600, 750, and 900 mg/kg, respectively. The mice were observed continuously for 1 h after such treatment and then intermittently for 4 h, and thereafter over a period of 24 h. The mice were further observed for up to seven days following treatment for any situations of poisoning and deaths and the latency of death. Some abnormal behaviors were recorded.
(§5) The acute toxicity assay via intraperitoneal injection was evaluated by LD50 and 95% CIs which were calculated by Käber assessment.

[4] = Acute toxicity assay via intraperitoneal injection; format: in vivo, Kunming mice; conditions: male, Kunming, mouse, in vivo, ip, mice, Käber assessment
Experimental: as §2, §4, §5

HBV (Hepatitis B Virus) = system: HBV (Hepatitis B Virus); design: method as in PMID 27023498; conditions: previous studies; cited from earlier work
[5] = system: CCl4-induced liver fibrosis in rats; assay: Histological assessment (H&E) of livers in CCl4-induced liver fibrosis; format: in vivo; conditions: nine weeks
Experimental: as §1, §3

[6] = system: CCl4-induced liver fibrosis in rats; assay: Serum ALT and AST in CCl4-induced liver fibrosis; format: in vivo; conditions: mean ± SD
Experimental: as §1, §3
According to the corresponding manufacturer’s protocols, plasma samples were prepared after finishing animal experiments and determined using ALT and AST diagnostic kits. The ALT and AST enzyme activities were measured by the third affiliated hospital of Beijing University of Chinese Medicine (Beijing, China).

[7] = Stability of Oxy-Di-OA in rat plasma and processed samples; format: physicochemical
Experimental: The stability of Oxy-Di-OA was investigated by analyzing the QC samples over three levels under different conditions, including −20 °C for 10 and 20 days (long-term stability), and room temperature for one day (short-term stability). In addition, the concentration of Oxy-Di-OA would be detected in the above samples to compare with the initial value in order to determine whether it has changed or not.

[8] = high-dose group 28 mg/kg once per day
[9] = low-dose group 14 mg/kg once per day
[10] = dose 28 mg/kg (high dose), 28 mg/kg
[11] = SD, rat, plasma, single oral dose 500 mg/kg, n = 6
[12] = single oral dose 500 mg/kg, n = 6
[13] = bifendate 10.5 mg/kg once per day

Compound: CC1(C)CCC2(C(=O)O)CC[C@]3(C)C(=CC=C4[C@@]5(C)CCC(=O)C(C)(C)[C@@H]5CC[C@]43C)C2C1 (stereo partly shown) [Oxy-Di-OA, 3-oxours-oleana-9(11), 12-dien-28-oic acid]
- expression of TGF-β1 (immunohistochemical staining) (TGF-β1; [8]): a lower expression of TGF-β1 compared to model group
- expression of TGF-β1 (immunohistochemical staining) (TGF-β1; [9]): a lower expression of TGF-β1 compared to model group
- LD50 at 7 days [1]: > 2000 mg/kg
- Liver Index ([2]; dose 14 mg/kg): 3.46 ± 0.38 %
- Spleen Index ([2]; dose 14 mg/kg): 0.24 ± 0.06 %
- Liver Index [2, 10]: 3.15% ± 0.36% and 3.15 ± 0.36 *^,# %
- Spleen Index [2, 10]: 0.26% ± 0.05% and 0.26 ± 0.05 %
- AUC(0-t) ([3]; SD, rat, plasma, po, 500 mg/kg, single oral dose 500 mg/kg, n = 6, read-out: AUClast (area under the concentration-time curve from t = 0 to the last time)): 88020 ± 660 ng·h/mL
- Cmax [3, 11]: 8180 ± 660 ng/mL
- MRT [3, 11]: 9.48 ± 0.48 h
- Tmax ([3]; SD, rat, plasma, single oral dose 500 mg/kg, n = 6, read-out: Tmax (time to reach peak concentration)): 10 ± 2.19 h
- half-life ([3]; SD, rat, plasma, single oral dose 500 mg/kg, n = 6, read-out: t1/2 (elimination half-life) (converted)): 2.19 ± 0.71 h
- CL [3, 12]: 92.9307 ± 16.544 mL/min/kg
- Vz [3, 12]: 18,290.17 ± 9453.59 mL/kg
- AUClast (area under the concentration-time curve from t = 0 to the last time) ([3]; single oral dose 500 mg/kg, n = 6, 500 mg/kg): 90210 ± 15680 ng·h/mL
- elimination half-life compared with oleanolic acid ([3]; oleanolic acid data ref 27): longer elimination half-life than its parent compound, oleanolic acid
- dose harmless for further in vivo study (mice): 600 mg/kg
- Death Rate (mice; 178 mg/kg): 0%
- Death Rate (mice; 422 mg/kg): 0%
- Death Rate (mice; 600 mg/kg): 0%
- Death Rate (mice; 750 mg/kg): 67%
- Death Rate (mice; 900 mg/kg): 83%
- symptoms observed (mice; high dose, one hour after the experiment): slow movement and a decrease in aggressiveness
- LD50 at 7 days ([4]; read-out: 95% CIs of LD50): 640 to 799 mg/kg
- LD50 at 7 days ([4]; read-out: LD50): 715 mg/kg
- anti-HBV activity IC50 (HBV (Hepatitis B Virus)): 3.13 µg/mL
- inhibition of the rebound of the viral replication rate, compared with lamivudine (HBV (Hepatitis B Virus)): superior to the positive drug (Lamivudine)
- inhibition rate of the secretion of HBsAg (HBV (Hepatitis B Virus)): 90.52% ± 1.78%
- reduction rate of the secretion of HBeAg (HBV (Hepatitis B Virus)): 42.31% ± 3.53%
- histological examination of rat livers (H&E) [5, 8]: marked regression and alleviation in the abnormal areas
- histological examination of rat livers (H&E) [5, 9]: moderate regression of morphological changes
- ALT ([6]; dose 14 mg/kg): 77.58 ± 39.58 U/L
- AST ([6]; dose 14 mg/kg): 122.00 ± 52.19 U/L
- ALT ([6]; dose 28 mg/kg): 67.06 ± 51.59 U/L
- AST ([6]; dose 28 mg/kg): 141.89 ± 71.57 U/L
- stability in plasma biomatrix and processed samples ([7]; freezing and thawing cycles, room temperature 24 h): stable
- concentration relative to the initial concentration ([7]; methanol solutions, room temperature for 24 h): 97.46% to 100.17%

Compound: COC(=O)c1cc(OC)c2c(c1-c1c(C(=O)OC)cc(OC)c3c1OCO3)OCO2 [Bifendate, bifendate, reference compound]
- expression of TGF-β1 (immunohistochemical staining) (TGF-β1; [13]): a low expression of TGF-β1
- Liver Index ([2]; dose 10.5 mg/kg): 3.57 ± 0.34 %
- Spleen Index ([2]; dose 10.5 mg/kg): 0.24 ± 0.04 %
- histological examination of rat livers (H&E) [5, 13]: notable alleviation in abnormal areas
- ALT ([6]; dose 10.5 mg/kg): 54.54 ± 21.40 U/L
- AST ([6]; dose 10.5 mg/kg): 122.56 ± 39.18 U/L
